Earlier results as cited in patent US7858602B2, “Therapeutic and prophylactic uses of cell specific carbonic anhydrase enzymes in treating aging disorders due to oxidative stress and as growth factors of stem cells” (priority 2000, dated 2010).

Experiments:
[1] = system: carbonic anhydrase VI (CA-VI); details: orally administered, patients with CA-VI deficiency
CA = details: in vitro and in vivo
[2] = system: sympathetic nerve terminals
[3] = system: human synovial cells and synovial tissue cultures
[4] = system: synovial connective tissue fibroblast
muscle fibroblast = details: exposure to CA III

Row | Molecule | effect on CA (CA) | Prostaglandin PGE2 production [3] | hyaluronic acid production [3] | nitric oxide production [3] | other results
1 | [Zn] [Zinc] |  |  |  |  | stimulation of synthesis/secretion of CA-VI, treatment result [1]: successful
2 | CCCCC[C@H](O)/C=C/[C@H]1[C@H](O)CC(=O)[C@@H]1C/C=C\CCCC(=O)O [prostaglandin E2, Prostaglandin E2] | inhibit |  |  |  | gastric acid output (gastric acid output): inhibit; egress of norepinephrine from sympathetic nerve terminals [2]: inhibits
3 | CCCCC[C@H](O)/C=C/[C@H]1[C@H](O)CC(=O)[C@@H]1CCCCCCC(=O)O [prostaglandin E1] | inhibit |  |  |  | 
4 | CNCCC(Oc1ccc(C(F)(F)F)cc1)c1ccccc1 (stereo not drawn) [Fluoxetine] |  | inhibit | inhibit | inhibit | 
5 | CN(C)CCC=C1c2ccccc2CCc2ccccc21 [aminitriptylline] |  | inhibit | inhibit | inhibit | 
6 | CA III: Carbonic anhydrase III isolated from adult human skeletal muscle (protein, UniProt P07451 2-260, looked up) Carbonic anhydrase 3: AKEWGYASHNGPDHWHELFPNAKGENQSPVELHTKDIRHDPSLQPWSVSYDGGSAKTILNNGKTCRVVFDDTYDRSMLRGGPLPGPYRLRQFHLHWGSSDDHGSEHTVDGVKYAAELHLVHWNPKYNTFKEALKQRDGIAVIGIFLKIGHENGEFQIFLDALDKIKTKGKEAPFTKFDPSCLFPACRDYWTYQGSFTTPPCEECIVWLLLKEPMTVSSDQMAKLRSLLSSAENEPPVPLVSNWRPPQPINNRVVRASFK |  |  |  |  | increase of synovial connective tissue fibroblast on exposure to CA III ([4]; cell culture): 2 to 12 fold; hyaluronic acid synthesis ([4]; cell culture, exposure to CA III): increased; increase in synovial fibroblasts ([4]; exposure to CA III): 16-70%; increase in muscle fibroblast (muscle fibroblast): 20-45%
